In assay [1] the test system is basal cell carcinoma (BCC) lesions on the face. Description: Randomized, double-blind, vehicle-controlled study of Patidegib Topical Gel, 2% in Gorlin syndrome participants, ITT, all types of subjects (Example 3). The class given is in vivo, human. To be noted: PTCH1 mutation not required, gel 2% twice daily to face. An excerpt:
(§1) A randomized, double-blind, stratified, vehicle-controlled study was done, measuring the efficacy and safety of Patidegib Topical Gel, 2%, applied topically twice daily to the face of adult participants with Gorlin syndrome. The Participants were required to apply the investigational product for 12 months. The primary endpoint is a comparison between the two treatment arms of the number of new BCCs that develop over the 12 month period.
Participants will be randomized to receive Patidegib Topical Gel, 2%. The Patidegib Topical Gel, 2% will be dispensed to participants at each study visit and applied topically twice daily to the face.
Participants will be randomized to receive Vehicle. The Patidegib Topical Gel, Vehicle will be dispensed to participants at each study visit and applied topically twice daily to the face.
• 1. The participant must be age at least 18 years of age at the Screening Visit. • 2. The participant must provide written informed consent prior to any study procedures. • 3. The participant must meet diagnostic criteria for the basal cell nevus (Gorlin) syndrome including major criterion #3a plus 1 additional major criterion or plus 2 additional minor criteria listed below.
• a. >2 histologically confirmed BCCs or 1 for participant under age 20. • b. Odontogenic keratocysts of the jaw confirmed histologically. • c. ≥3 palmar and/or plantar pits seen at the Screening Visit. • d. Bilamellar calcification of the falx cerebri present at less than 20 years of age. • e. Fused, bifid, or markedly splayed ribs. • f. First degree relative with Gorlin syndrome. • g. Patched protein 1 (PTCH1) mutation predicted to be of functional significance in normal tissue.
• h. Macrocephaly. • i. Congenital malformations including frontal bossing, cleft lip or palate, “coarse face”, moderate to severe hypertelorism. • j. Skeletal abnormalities detectable clinically: Sprengel deformity, marked pectus deformity, or marked finger syndactyly. • k. Skeletal abnormalities detectable radiographically: bridging of the sella turcica; vertebral abnormalities such as hemivertebrae, fusion or elongation of the vertebral bodies; modeling defects of the hands and feet; flame shaped lucencies of the hands or feet. • l. Ovarian fibroma. • m. Medulloblastoma (Modification of criteria of V Kimonis et al Am J Med Genet 69: 299-308, 1997). • 4. The participant must have 10 (with at least 3 on the face) clinically typical BCCs present within 24 months prior to Randomization (Baseline/Day 1). Additionally, the subject must have at least 2 BCCs with longest diameter <5 mm present on the face prior to Randomization (Baseline/Day 1). • 5. […] The participant is willing for all facial BCCs to be evaluated and treatment recommendations made only by the Investigator. • 10. […]

Assay [2] shares this test system. In words: Post hoc analysis of the Example 3 trial: Gorlin patients without PTCH1 mutation (Example 4). Type of assay: in vivo, human. To be noted: for Number of qualifying nSEBs, observed, Mean / Number of new BCCs excluding no longer suspicious BCCs, observed, Mean: Gorlin syndrome without PTCH1 mutation, gel 2% twice daily to face; for Number of qualifying nSEBs, observed, Mean: baseline total BCC lesions at least 10; for Number of new BCCs excluding no longer suspicious BCCs, observed, Mean: baseline total facial BCC lesions at least 10. The method, then:
as §1
A post hoc analysis was performed on the results of the clinical trial of Example 3 to analyze the impact of Patidegib on patients without PTCH1 mutation.

Consider `CC1=C2C[C@H]3[C@@H](CC[C@@H]4C[C@H](NS(C)(=O)=O)CC[C@@]43C)[C@@H]2CC[C@@]2(C1)O[C@@H]1C[C@H](C)CN[C@H]1[C@H]2C` [Patidegib], for which the “Proportion of SEBs clinically resolved, observed, Mean” value in assay [1] (month 3) came out at 7.72; in assay [1] (month 6), 6.91; in assay [1] (month 9), 9.13; in assay [1] (month 12), 15.03. Moreover, the “Overall efficacy (in words)” value in assay [2] (Gorlin syndrome subjects who lacked the PTCH1 mutation (Examples 3 and 4)) is “produced no effect”. Moreover, the “Number of qualifying nSEBs, observed, Mean” value in assay [2] (month 3) is reported as 0.25; in assay [2] (month 6) it was 0.92; in assay [2] (month 9) it was 1.38; in assay [2] (month 12) it was 2.50. Besides, the “Number of new BCCs excluding no longer suspicious BCCs, observed, Mean” value came to 1.00 in assay [2] (month 3), 2.92 in assay [2] (month 6), 4.75 in assay [2] (month 9) and 6.67 in assay [2] (month 12).
